Emission maximum data for 44 molecules are collected here from the Deep4Chem optical property database.

This data set can be described thus: solvent given as SMILES.

`Cc1ccc(N(CC(=O)[O-])CC(=O)[O-])c(OCCOc2cc3cc(-c4ncc(C(=O)[O-])o4)oc3cc2N(CC(=O)[O-])CC(=O)[O-])c1` had an emission maximum (in O) of 500 nm.
The molecule `C[C@H](Nc1c2ccc(=[N+]3CCCCC3)cc-2oc2cc(N3CCCCC3)ccc12)C(=O)OC(C)(C)C` registered an emission maximum (in ClCCl) of 544 nm.
In the case of `O=C1OC(=O)C2=C1[Se][C@]13C2=C[C@H](c2ccccc21)c1ccccc13`, the emission maximum (in ClCCl) was found to be 517 nm.
`CN(C)c1ccc(N2c3sc4ccccc4c3Sc3c2sc2ccccc32)cc1`: the emission maximum (in ClCCl) was determined as 556 nm.
`N#C/C(=C\c1ccc(Cl)cc1)c1nc(-c2ccccc2)cs1`: where the note is “in CC#N”, the emission maximum is on record as 480 nm.
Take `COc1ccc(/C=C/C2=[O+][B-](F)(F)OC(/C=C/c3ccc(OC)cc3)=C2c2ccccc2)cc1`: the emission maximum runs as follows: (in CC#N) 564 nm; (in CC(C)=O) 549 nm; (in CCOC(C)=O) 534 nm; (in CCOCC) 520 nm; (in ClC(Cl)(Cl)Cl) 515 nm; (in ClCCl) 554 nm.
Turning to `CC1(C)c2ccccc2N(c2ccc3c(c2)c2cc(N4c5ccccc5C(C)(C)c5ccccc54)ccc2c2nc4ccccc4nc32)c2ccccc21`, the emission maximum is recorded as 553 nm (in Cc1ccccc1) and 565 nm (in c1cc(-c2cccc(-n3c4ccccc4c4ccccc43)c2)cc(-n2c3ccccc3c3ccccc32)c1).
As for `CCOC(=O)CCCCCn1c2ccccc2c(=O)c2cc3c(cc21)c(=O)c1cc(I)ccc1n3CCCCCC(=O)OCC`, under “in CO”, the emission maximum was determined as 558 nm.
`CC(C)(C)c1cccc2c1oc1nc3oc4ccc(-n5c6ccccc6c6ccccc65)cc4c3cc12`: the emission maximum (in ClC(Cl)Cl) worked out at 419 nm.
Where the note is “in CS(C)=O”, `Cc1ccc(C2C3=C(CCCC3=O)Nc3c2c(=O)oc2ccccc32)cc1` (configuration not stated) registered an emission maximum of 441 nm.
The molecule `CCCCCc1c(C)c2c3ccccc3[nH]c2c2ccccc12` yielded an emission maximum (in ClCCl) of 369 nm.
In the case of `Cc1ccc(-c2ccc(/C=C/c3ccc(N(C)C)cc3)cn2)nc1`, for the setting “in CC#N”, the emission maximum is listed as 532 nm.
On to `N#Cc1cc(C#N)c(-c2ccc(N(c3ccccc3)c3ccccc3)cc2)cc1-c1ccc(N(c2ccccc2)c2ccccc2)cc1`, for which the emission maximum (in Cc1ccccc1) is listed as 477 nm.
With `Cc1ccc2c(c1)c(C#N)c(C#N)c1cc(C)ccc12`, the emission maximum (in ClC(Cl)Cl) is recorded as 396 nm.
As to `Cc1cc(C)c(C2=C3C=C(/C=C/C(=O)OCc4ccccc4)C=[N+]3[B-](F)(F)n3cc(/C=C/C(=O)OCc4ccccc4)cc32)c(C)c1`, the emission maximum (in ClCCl) is 604 nm.
In turn, `c1ccc(-c2nc(-c3ccccc3)nc(-c3ccc(-n4c5ccccc5c5c4c4ccccc4n5-c4ccccc4)cc3)n2)cc1` had an emission maximum (in Cc1ccccc1) of 526 nm.
`Cc1cc(C2(c3cc(C)c(O)c(Br)c3)OS(=O)(=O)c3ccccc32)cc(Br)c1O`: the emission maximum is given as 492 nm (in C1CCOC1); 450 nm (in C1COCCO1); 497 nm (in CC#N); 473 nm (in CC(C)(C)O); 490 nm (in CC(C)=O); 498 nm (in CC(C)O). For the same molecule, the emission maximum reads like this: (in CCCCCO) 485 nm; (in CCCO) 505 nm; (in CCO) 507 nm; (in CCOC(C)=O) 478 nm; (in CCOCC) 476 nm; (in CO) 502 nm.
Take `N#Cc1nn(-c2cccc(C(F)(F)F)c2)nc1N1CCCC1`: the emission maximum (in CC#N) came out at 430 nm.
For `CC(C)(C)c1ccc2c(c1)c1cc(C(C)(C)C)ccc1n2-c1ccccc1-c1nc(-c2ccccc2-n2c3ccc(C(C)(C)C)cc3c3cc(C(C)(C)C)ccc32)nc(-c2ccccc2P(=O)(c2ccccc2)c2ccccc2)n1`, the emission maximum runs as follows: (in C1CCOC1) 512.54 nm; (in CC#N) 546.04 nm; (in CC(C)=O) 533.4 nm; (in CN(C)C=O) 546.04 nm; (in Cc1ccccc1) 493.22 nm; (in ClC(Cl)Cl) 516.24 nm. In addition, the emission maximum came to 529.29 nm (in ClCCl) and 500 nm (in O=P(c1ccccc1)(c1ccccc1)c1ccccc1Oc1ccccc1P(=O)(c1ccccc1)c1ccccc1).
As to `c1cc2c3c(c1)OCCCCCCCOc1cccc(c1-c1c4ccccc4c-3c3ccccc13)OCCCCCCCO2`, under “in C1CCCCC1”, the emission maximum was 427 nm.
For `CC(C)[Si](C#Cc1cc2c3c(c1)c(=C1c4ccccc4Sc4ccccc41)c1cc(C#C[Si](C(C)C)(C(C)C)C(C)C)cc4c1N3c1c(cc(C#C[Si](C(C)C)(C(C)C)C(C)C)cc1c4=C1c3ccccc3Sc3ccccc31)c2=C1c2ccccc2Sc2ccccc21)(C(C)C)C(C)C`, the emission maximum (in ClCCl) is on record as 511 nm.
Turning to `c1ccc(C2=C(c3ccccc3)c3cccc4c3c(cc3nc5c(-c6ccccc6)ccc(-c6ccccc6)c5nc34)O2)cc1`, the emission maximum (in ClCCl) stood at 551 nm.
Take `N#Cc1cc2nc3c(nc2cc1C#N)C1c2ccc(N(c4ccccc4)c4ccccc4)cc2C3c2ccc(N(c3ccccc3)c3ccccc3)cc21`: the emission maximum turned out to be 487 nm (in C1CCCCC1), 492 nm (in CC#N), 552 nm (in Cc1ccccc1) and 497 nm (in ClCCl).
On to `CC1(C)C(=O)C=Cc2ccc(N)cc21`, for which, under “in O”, the emission maximum came to 526 nm.
Take `COc1ccc(C#Cc2c3ccccc3c(C#Cc3ccc(OC)cc3)c3ccccc23)cc1`: for the setting “in ClCCl”, the emission maximum came out at 492 nm.
Take `CC(C)(C)c1ccc(C2=CC3=C(c4ccccc4)c4cc(-c5ccc(C(C)(C)C)cc5)c(-c5ccc(C(C)(C)C)cc5)n4[B-](F)(F)[N+]3=C2c2ccc(C(C)(C)C)cc2)cc1`: the emission maximum is, setting by setting: (in C1CCCCC1) 643 nm; (in C1CCOC1) 649 nm; (in CC#N) 647 nm; (in Cc1ccccc1) 649 nm; (in ClCCl) 649 nm.
Turning to `N#Cc1cnc(-c2c3ccccc3c(-c3ccccc3)c3ccccc23)nc1`, the emission maximum (in CCO) came to 520 nm and the emission maximum (in ClCCl) is 504 nm.
Take `C/C=C/c1cc(OC)cc(OC)c1`: the emission maximum turned out to be 343 nm (in CC#N) and 338 nm (in CCCCCC).
In the case of `CCN(CC)c1ccc(/C=N/C(C#N)=C(C#N)\N=C\c2ccc(N(CC)CC)cc2O)c(O)c1`, for the setting “in CC#N”, the emission maximum worked out at 606 nm.
`CC(C)[Si](C#Cc1ccc(C#C[Si](C(C)C)(C(C)C)C(C)C)c2nc3c(nc12)C1c2ccccc2C3c2ccccc21)(C(C)C)C(C)C` registered an emission maximum (in CCCCCC) of 404 nm.
Still for that read-out and setting: next, `F[B-]1(F)n2c(ccc2-c2cccs2)C(C(F)(F)F)=C2C=CC(c3cccs3)=[N+]21`: 674 nm.
Take `CCC1(CC)c2cc(-c3ccc(C(C)(C)C)cc3)ccc2-c2ccc(-c3ccc4c(c3)C(CC)(CC)c3cc(-c5ccc6c(c5)C(CC)(CC)c5cc(-c7ccc(C(C)(C)C)cc7)ccc5-6)ccc3-4)cc21`: for the setting “in CO”, the emission maximum is 402.3 nm.
Consider `COc1ccc2c(c1)c(C#N)cc1c(OC)c(OC)c3cc(C#N)c4cc(OC)ccc4c3c12`, for which the emission maximum (in ClC(Cl)Cl) came to 496 nm.
Consider `N#Cc1cc(C#Cc2c(F)c(F)nc(F)c2F)c(C#Cc2c(F)c(F)nc(F)c2F)cc1C#N`, for which the emission maximum (in CC#N) is reported as 370 nm.
With `COc1ccc(-c2cc3c(s2)c(C(=O)c2ccccc2)cc(=O)n3Cc2ccccc2)cc1`, the emission maximum was 558 nm (in CC#N) and 547 nm (in ClCCl).
Take `CC(C)=CCN1C(=O)c2cccc3c2c(cc2nc(C)oc23)C1=O`: the emission maximum (in CCO) is 412 nm.
In the case of `COc1cc(N(CC(=O)[O-])CC(=O)[O-])c2nc(COc3cc(C)ccc3N(CC(=O)[O-])CC(=O)[O-])ccc2c1`, the emission maximum (in O) amounted to 500 nm.
`COc1ccc(-c2nc(-c3ccccc3OC)[nH]c2-c2ccc(OC)cc2)cc1` displayed an emission maximum (in CO) of 392 nm.
In the case of `O=S(=O)(c1ccc(-c2ccc(-c3nc4c5ccccc5c5ccccc5c4n3-c3ccccc3)cc2)cc1)c1ccc(-c2ccc(-c3nc4c5ccccc5c5ccccc5c4n3-c3ccccc3)cc2)cc1`, the emission maximum is 451 nm (in C1CCOC1); 479 nm (in CC#N); 468 nm (in CC(C)=O); 437 nm (in CC(C)OC(C)C); 404 nm (in CCCCCC); 420 nm (in CCCCOCCCC). The emission maximum by setting is: (in CCN(CC)CC) 413 nm; (in CCOC(C)=O) 448 nm; (in CCOCC) 438 nm; (in CN(C)C=O) 478 nm; (in ClC(Cl)Cl) 450 nm; (in ClCCl) 461 nm. In addition, under “in c1ccc2c(c1)c1ccccc1n2-c1ccc(-c2ccc(-n3c4ccccc4c4ccccc43)cc2)cc1”, the emission maximum stood at 443 nm.
In the case of `C(#Cc1nc(C#Cc2cccs2)c(C#Cc2cccs2)c(C#Cc2cccs2)c1C#Cc1cccs1)c1cccs1`, the emission maximum (in ClCCl) is recorded as 441 nm.
As to `CCOC(=O)CSc1nc(-c2ccccc2)c(C)c(C#N)c1C#N`, the emission maximum is on record as 414 nm (in C1COCCO1); 426 nm (in CC#N); 434 nm (in CCO); 421 nm (in CCOC(C)=O); 435 nm (in ClC(Cl)Cl); 421 nm (in c1ccccc1).
Take `CCCCCCCCN1c2ccc(C#Cc3cc(C(F)(F)F)cc(C(F)(F)F)c3)cc2Sc2cc(C=O)ccc21`: the emission maximum (in C1CCOC1) was found to be 514 nm; the emission maximum (in CC#N) is 532 nm; the emission maximum (in CCCCCC) was determined as 491 nm; the emission maximum (in CO) stood at 517 nm; the emission maximum (in CS(C)=O) is on record as 540 nm; the emission maximum (in Cc1ccccc1) is given as 508 nm. The molecule further returned an emission maximum (in ClC(Cl)Cl) of 529 nm.
As for `C(=C\c1c2ccccc2cc2ccccc12)/c1ccc2ccccc2n1`, the emission maximum came to 492 nm (in CC1CCCCC1) and 510 nm (in CC#N).
For the setting “in Cc1ccccc1”, `Cc1cc(C)c(B(c2c(C)cc(C)cc2C)c2ccc3ccc4cccc5ccc2c3c45)c(C)c1` returned an emission maximum of 423 nm.
